The subject of assay [1] is HeLa (Cervix Adenocarcinoma). Description: Cell viability analysis, cervical cancer HeLa. The assay is classed as cell-based, human. Conditions: Homo sapiens, HeLa, 72 h.
Another assay deals with cancer cell lines. As to the kind of experiment: Cell viability analysis (WST-1) on cancer cell lines. The assay is classed as cell-based, human. Conditions: drug 10 μM, 72 hours, WST-1; Table 3. (Tetrazolium dyes change colour on reduction, which living cells bring about.)
In assay [2] the test system is TSGH-8301 (Urinary Bladder Carcinoma). As to the kind of experiment: Cell viability analysis, bladder cancer TSGH-8301. To be noted: Homo sapiens, 72 h. The class given is cell-based, human.
The subject of assay [3] is HepG2 (Hepatocellular Carcinoma). As to the kind of experiment: Cell viability analysis, hepatic cancer HepG2. To be noted: Homo sapiens, HepG2, 72 h. The class given is cell-based, human.
Assay [4] deals with MKN-45 (Gastric Adenocarcinoma). Description: Cell viability analysis, gastric cancer MKN-45. The class given is cell-based, human. To be noted: Homo sapiens, MKN-45, 72 h.
Assay [5] relates to A375 (Amelanotic Melanoma). Description: Cell viability analysis, skin cancer A375. To be noted: Homo sapiens, A-375, 72 h. The assay is classed as cell-based, human.
For assay [6], the system named is LoVo (Colorectal Adenocarcinoma). Description: Cell viability analysis, colon cancer LoVo. Conditions: Homo sapiens, LoVo, 72 h, read-out: cell viability (survival rate), LoVo, drug 10 μM, 72 hours, WST-1, OD450 nm. The assay is classed as cell-based, human.
The test system of assay [7] is HCT116 (p53+) (Colorectal Carcinoma). As to the kind of experiment: cells. To be noted: Homo sapiens, HCT-116, 72 h, read-out: cell viability (survival rate), HCT116.
Assay [8] concerns HI650 (Lung Adenocarcinoma). Description: Cell viability analysis, lung cancer HI650. The class given is cell-based, human. Conditions: Homo sapiens, NCI-H1650, 72 h.
Assay [9] deals with AGS (Gastric Adenocarcinoma). Description: Cell viability analysis, gastric cancer AGS. To be noted: Homo sapiens, 72 h. The assay is classed as cell-based, human.
Assay [10] has as its system HL-60 (Acute Promyelocytic Leukemia). Description: Cell viability analysis, leukemia HL-60. The class given is cell-based, human. To be noted: Homo sapiens, HL-60, 72 h.
Assay [11] has as its system PC3 (p53−) (Prostate Adenocarcinoma). Description: Cell viability analysis, prostate cancer PC3. The class given is cell-based, human. To be noted: Homo sapiens, 72 h.
Assay [12] concerns A549 (Lung Adenocarcinoma). Description: Cell viability analysis, lung cancer A549. The assay is classed as cell-based, human. To be noted: Homo sapiens, A549, 72 h.
Assay [13] relates to MCF7 (Mammary Gland, Adenocarcinoma). As to the kind of experiment: Cell viability analysis, breast cancer MCF7. The class given is cell-based, human. Conditions: Homo sapiens, MCF7, 72 h.

Each structure is given as a SMILES string. Counter-ions that a name gives are not always drawn. Like-named read-outs stand apart in the source and are kept apart here.

As to `CCn1nc(C(=O)O)c(=O)c2cc3c(cc21)OCO3` [Cinoxacin], the viability at 10 µM was 64% in [1] (read-out: cell viability (survival rate), HeLa, drug 10 μM, 72 hours, WST-1, OD450 nm); 71.5% in assay [2] (read-out: cell viability (survival rate), TSGH, drug 10 μM, 72 hours, WST-1, OD450 nm); 69.7% in [3] (read-out: cell viability (survival rate), HepG2, drug 10 μM, 72 hours, WST-1, OD450 nm); 98.9% in assay [4] (read-out: cell viability (survival rate), MKN-45, drug 10 μM, 72 hours, WST-1, OD450 nm); 68.3% in [5] (read-out: cell viability (survival rate), A375, drug 10 μM, 72 hours, WST-1, OD450 nm); 97% in assay [6]. Also, the viability at 10 µM in assay [7] turned out to be 66.2%; in [8] (read-out: cell viability (survival rate), H1650, drug 10 μM, 72 hours, WST-1, OD450 nm), 67.1%; in [9] (read-out: cell viability (survival rate), AGS, drug 10 μM, 72 hours, WST-1, OD450 nm), 83.2%; in assay [10] (read-out: cell viability (survival rate), HL-60, drug 10 μM, 72 hours, WST-1, OD450 nm), 109%; in [11] (read-out: cell viability (survival rate), PC3, drug 10 μM, 72 hours, WST-1, OD450 nm), 87%; in assay [12] (read-out: cell viability (survival rate), A549, drug 10 μM, 72 hours, WST-1, OD450 nm) it was 74.2%. In assay [13] (read-out: cell viability (survival rate), MCF7, drug 10 μM, 72 hours, WST-1, OD450 nm), the viability at 10 µM was 74.9%. In the assay on cancer cell lines, the “inhibition effect on different cancer cell lines” value was “significant inhibition effect”.

As to `CN1CCN(c2cc3c(cc2F)c(=O)c(C(=O)O)cn3-c2ccc(F)cc2)CC1` [Difloxacin HCl], the viability at 10 µM in assay [1] (drug 10 μM, 72 hours, WST-1, OD450 nm, read-out: cell viability (survival rate), HeLa) amounted to 130%; in [2] (drug 10 μM, 72 hours, WST-1, OD450 nm, read-out: cell viability (survival rate), TSGH), 52%; in assay [3] (drug 10 μM, 72 hours, WST-1, OD450 nm, read-out: cell viability (survival rate), HepG2) it was 71.2%; in [4] (drug 10 μM, 72 hours, WST-1, OD450 nm, read-out: cell viability (survival rate), MKN-45) it was 79.4%; in [5] (drug 10 μM, 72 hours, WST-1, OD450 nm, read-out: cell viability (survival rate), A375), 58.5%; in assay [6], 95.7%. Also, the viability at 10 µM in assay [7] was 96.7%; in assay [8] (drug 10 μM, 72 hours, WST-1, OD450 nm, read-out: cell viability (survival rate), H1650) it was 77.5%; in assay [9] (drug 10 μM, 72 hours, WST-1, OD450 nm, read-out: cell viability (survival rate), AGS), 82.9%; in assay [10] (drug 10 μM, 72 hours, WST-1, OD450 nm, read-out: cell viability (survival rate), HL-60), 77%; in assay [11] (drug 10 μM, 72 hours, WST-1, OD450 nm, read-out: cell viability (survival rate), PC3) it was 77.3%; in assay [12] (drug 10 μM, 72 hours, WST-1, OD450 nm, read-out: cell viability (survival rate), A549), 64.5%. The viability at 10 µM in [13] (drug 10 μM, 72 hours, WST-1, OD450 nm, read-out: cell viability (survival rate), MCF7) came to 52.3%. Further, the “inhibition effect on different cancer cell lines” value with cancer cell lines is “significant inhibition effect”.

What is called viability is a read-out of living cells in per cent, often relative to untreated cells.

Source of the values: patent US10105357B2, “Indication of antibiotic drugs for preparation of cancer inhibition pharmaceutical composition” (LAUNX BIOMEDICAL CO., LTD., priority 2014, dated 2018).
